Measurements: patent US20060292639A1, “Splice variant of the vanilloid receptor VR1A” (Adolor Corporation, priority 2004, published 2006)
Read-outs that look alike come from different tables or passages of the source.

Legend:
human DRG VR1 = biological target: T1, human DRG VR1 (Homo sapiens, UniProt Q8NER1, I585V/K332R/M315I); assay: Ca2+ influx assay, stable cell line expressing VR1; assay type: cell-based; conditions: for IC50: VR1 stable cell line, N=4, read-out: IC50 Capsazepine
T1 construct: The two primers were designed to amplify the entire coding region; expressed in transfected cells; CHO is stated only for the VR1A construct
T1 sequence (Q8NER1 whole entry M315I/K332R/I585V): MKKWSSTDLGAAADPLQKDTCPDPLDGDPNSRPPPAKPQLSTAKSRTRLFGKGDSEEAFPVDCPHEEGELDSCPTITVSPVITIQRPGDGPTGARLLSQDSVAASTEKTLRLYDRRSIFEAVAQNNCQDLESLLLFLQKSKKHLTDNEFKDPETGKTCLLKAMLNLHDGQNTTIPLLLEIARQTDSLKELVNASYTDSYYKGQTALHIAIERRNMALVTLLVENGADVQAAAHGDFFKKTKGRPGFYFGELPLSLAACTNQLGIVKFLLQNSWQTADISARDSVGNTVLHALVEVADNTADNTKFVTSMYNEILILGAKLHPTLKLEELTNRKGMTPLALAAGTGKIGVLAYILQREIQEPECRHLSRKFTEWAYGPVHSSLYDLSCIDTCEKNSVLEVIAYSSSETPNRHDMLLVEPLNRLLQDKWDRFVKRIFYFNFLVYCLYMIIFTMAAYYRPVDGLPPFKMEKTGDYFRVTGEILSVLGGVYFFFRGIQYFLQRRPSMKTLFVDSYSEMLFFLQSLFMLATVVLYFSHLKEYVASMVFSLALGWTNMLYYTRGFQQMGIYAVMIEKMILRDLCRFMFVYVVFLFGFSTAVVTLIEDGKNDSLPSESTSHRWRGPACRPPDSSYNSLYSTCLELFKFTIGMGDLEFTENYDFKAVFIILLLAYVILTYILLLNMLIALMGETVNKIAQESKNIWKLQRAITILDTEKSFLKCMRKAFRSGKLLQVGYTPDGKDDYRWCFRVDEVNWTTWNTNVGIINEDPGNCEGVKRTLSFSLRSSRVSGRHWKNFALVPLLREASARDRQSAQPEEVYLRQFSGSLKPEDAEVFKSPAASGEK
Experimental: (§1) B. Generation of a stable cell line: The VR1A construct was transfected into 80-90% confluent cultures of CHO cells grown in F12 media containing 10% fetal bovine serum (Hyclone Laboratories). After 48 hours, cells were transferred to selection medium (growth medium containing 1 mg/ml of G418) and 15 days later individual G418 resistant foci were isolated and expanded. In order to identify a functional cell line, the expanded cells were plated in a 96 well plate and grown to confluency. […] Functional clones were retested, expanded and cryopreserved.
(§2) C. Calcium influx assay: The stable cell lines, expressing human DRG VR1 and human pancreas VR1A, were seeded the day before the assay at 40,000 cells/well density in 96 well black clear bottom assay plates (Corning Inc., Corning, N.Y.). On the day of the assay, the medium of cell plates was changed to 0.2 ml of 1× Hanks' balanced salt solution (Invitrogen, Carlsbad, Calif.) containing 20 mM HEPES, pH 7.4, 1.3 mM freshly made probenecid and 3 μM Fluo-3AM (Molecular Devices, Sunnyvale, Calif.). The cell plates were incubated at 37° C. for one hour and left at room temperature for 30 minutes. Serial dilutions of agonist compounds, starting at 100 μM, were set up in 96 well plates and subsequently used for the analysis. Both plates were loaded to the FlexStation in order to run the assay. The excitation wavelength was 485 nM and the emission wavelength was 583 nM.

human pancreas VR1A = biological target: T2, human pancreas VR1A (Homo sapiens, UniProt Q8NER1, I585V/M315I/M552V); assay: Ca2+ influx assay, stable cell line expressing VR1A; assay type: cell-based
T2 construct: VR1A codes for a VR1-like protein, 837 amino acids long, with 148 unique residues at the N-terminal end; expressed in transfected cells; host or cells: CHO
T2 sequence (Q8NER1 1-837 isoform Q8NER1-3 M313I/M550V/I583V): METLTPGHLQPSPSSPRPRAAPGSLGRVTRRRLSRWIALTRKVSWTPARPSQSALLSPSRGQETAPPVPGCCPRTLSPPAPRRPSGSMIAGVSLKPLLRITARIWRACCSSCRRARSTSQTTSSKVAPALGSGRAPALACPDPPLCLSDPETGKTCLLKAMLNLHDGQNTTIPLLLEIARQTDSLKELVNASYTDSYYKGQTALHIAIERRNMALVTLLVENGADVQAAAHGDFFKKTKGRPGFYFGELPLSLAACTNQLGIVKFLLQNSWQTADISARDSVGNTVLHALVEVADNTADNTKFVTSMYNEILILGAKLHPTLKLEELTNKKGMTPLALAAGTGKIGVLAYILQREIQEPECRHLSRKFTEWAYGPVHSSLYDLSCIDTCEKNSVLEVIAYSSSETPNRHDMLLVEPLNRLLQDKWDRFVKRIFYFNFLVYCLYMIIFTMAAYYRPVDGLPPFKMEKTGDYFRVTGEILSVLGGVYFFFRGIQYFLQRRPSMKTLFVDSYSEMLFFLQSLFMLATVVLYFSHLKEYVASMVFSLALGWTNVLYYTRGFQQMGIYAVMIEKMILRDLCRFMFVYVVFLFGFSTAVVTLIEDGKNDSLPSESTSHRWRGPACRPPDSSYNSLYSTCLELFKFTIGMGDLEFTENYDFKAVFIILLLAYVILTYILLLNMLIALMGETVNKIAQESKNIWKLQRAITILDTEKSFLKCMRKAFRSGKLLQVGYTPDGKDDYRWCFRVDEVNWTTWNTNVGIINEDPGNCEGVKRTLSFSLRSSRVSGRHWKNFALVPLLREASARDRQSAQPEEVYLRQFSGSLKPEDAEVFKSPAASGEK
Experimental: as §1, §2

Structure (SMILES) | IC50 (human DRG VR1; E-capsaicin as agonist) | IC50 (human DRG VR1; RTX as agonist) | IC50 (human pancreas VR1A; IC50 Capsazepine, VR1A stable cell line, RTX as agonist, N=4) | IC50 (human pancreas VR1A; read-out: IC50 Capsazepine) | fold lower IC50 value with RTX as an agonist compared to capsaicin as an agonist (human pancreas VR1A; text does not say whether VR1 or VR1A is meant) | EC50 (human DRG VR1) | EC50 (human pancreas VR1A)
Oc1cc2c(cc1O)CN(C(=S)NCCc1ccc(Cl)cc1)CCC2 [Capsazepine, capsazepine] | 194 ± 0.06 nM | 140 ± 0.8 nM | 25 ± 0.26 nM | 60 ± 0.1 nM | approximately 5 fold | – | –
C=C(C)[C@]12C[C@@H](C)[C@@]34O[C@](Cc5ccccc5)(O[C@@H]1[C@@H]3C=C(COC(=O)Cc1ccc(O)c(OC)c1)C[C@]1(O)C(=O)C(C)=C[C@@H]41)O2 [RTX, resiniferatoxin] | – | – | – | – | – | 1.6 ± 0.17 nM | 5 ± 0.08 nM
